Measurements: PubChem BioAssay AID248 (DTP/NCI, 2004)
Values joined by “and” are separate entries in the source; they are usually repeats but may differ in a detail not shown here. Equal values may be shown once. Inconclusive results and toxic doses are left out. No stated cut-off is given here; in the data, active means T/C of 150% or more; inactive means T/C below 125%.

System: L1210 leukemia ip in BDF1 mice, survival T/C
Assay: NCI In Vivo Anticancer Drug Screen. Data for tumor model L1210 Leukemia (intraperitoneal) in B6D2F1 (BDF1) mice
Settings: endpoint: mean survival time, higher = longer survival
How it was run: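 Transplanted-tumor mice were given test agent; controls received vehicle only. Survival readings from the two groups were divided (treated over control).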

[1] = dose: 50.0 mg/kg/injection, schedule: Q01DX001 (ip), vehicle: saline
[2] = dose: 100.0 mg/kg/injection, schedule: Q01DX001 (ip), vehicle: carboxymethylcellulose (CMC)
[3] = dose: 100.0 mg/kg/injection, schedule: Q01DX009 (ip), vehicle: Klucel (hydroxypropylcellulose) (HPC)
[4] = dose: 200.0 mg/kg/injection, schedule: Q01DX009 (ip), vehicle: Klucel (hydroxypropylcellulose) (HPC)
[5] = dose: 400.0 mg/kg/injection, schedule: Q01DX009 (ip), vehicle: Klucel (hydroxypropylcellulose) (HPC)
[6] = dose: 100.0 mg/kg/injection, schedule: Q04DX003 (ip), vehicle: saline with Tween-80
[7] = dose: 200.0 mg/kg/injection, schedule: Q04DX003 (ip), vehicle: saline with Tween-80
[8] = dose: 400.0 mg/kg/injection, schedule: Q04DX003 (ip), vehicle: saline with Tween-80
[9] = dose: 200.0 mg/kg/injection, schedule: Q01DX001 (ip), vehicle: carboxymethylcellulose (CMC)
[10] = dose: 400.0 mg/kg/injection, schedule: Q01DX001 (ip), vehicle: carboxymethylcellulose (CMC)
[11] = dose: 100.0 mg/kg/injection, schedule: Q04DX003 (ip), vehicle: saline
[12] = dose: 200.0 mg/kg/injection, schedule: Q04DX003 (ip), vehicle: saline
[13] = dose: 400.0 mg/kg/injection, schedule: Q04DX003 (ip), vehicle: saline

Measured: T/C

C[N+](C)(CCc1ccccc1)CC(O)COc1ccccc1 (centres undefined)
inactive: dose: 4.5 mg/kg/injection, schedule: Q01DX009 (ip), vehicle: Klucel (hydroxypropylcellulose) (HPC) 89 % of control | dose: 9.0 mg/kg/injection, schedule: Q01DX009 (ip), vehicle: Klucel (hydroxypropylcellulose) (HPC) 92 % of control | dose: 18.0 mg/kg/injection, schedule: Q01DX009 (ip), vehicle: Klucel (hydroxypropylcellulose) (HPC) 94 % of control | dose: 18.75 mg/kg/injection, schedule: Q04DX003 (ip), vehicle: Klucel (hydroxypropylcellulose) (HPC) 98 % of control

O=C(Nc1ccc(S(=O)(=O)Nc2ccc(N=Nc3ccc(S(=O)(=O)Nc4nccs4)cc3)cc2)cc1)C(N1CC1)(N1CC1)N1CC1
inactive: dose: 15.0 mg/kg/injection, schedule: Q01DX001 (ip), vehicle: saline 105 % of control | dose: 30.0 mg/kg/injection, schedule: Q01DX001 (ip), vehicle: saline 105 % of control

Cc1cc(-c2ccc(NS(=O)(=O)c3ccccc3)c(C)c2)ccc1NS(=O)(=O)c1ccccc1
inactive: dose: 25.0 mg/kg/injection, schedule: Q01DX001 (ip), vehicle: saline with Tween-80 95 % of control | dose: 50.0 mg/kg/injection, schedule: Q01DX001 (ip), vehicle: saline with Tween-80 98 % of control | dose: 100.0 mg/kg/injection, schedule: Q01DX001 (ip), vehicle: saline with Tween-80 92 % of control and 104 % of control | dose: 200.0 mg/kg/injection, schedule: Q01DX001 (ip), vehicle: saline with Tween-80 89 % of control

CCn1ccc2c(N)ncnc21
inactive: [1] 95 % of control

OB1OB(OB2OB(O)O2)O1
inactive: [1] 92 % of control | dose: 100.0 mg/kg/injection, schedule: Q01DX001 (ip), vehicle: saline 92 % of control | dose: 200.0 mg/kg/injection, schedule: Q01DX001 (ip), vehicle: saline 108 % of control | dose: 400.0 mg/kg/injection, schedule: Q01DX001 (ip), vehicle: saline 113 % of control

CCCCS(=O)(=O)CCN1C(=O)C2C3CCC(O3)C2C1=O (centres undefined)
inactive: dose: 100.0 mg/kg/injection, schedule: Q04DX002 (ip), vehicle: Klucel (hydroxypropylcellulose) (HPC) 98 % of control | dose: 200.0 mg/kg/injection, schedule: Q04DX002 (ip), vehicle: Klucel (hydroxypropylcellulose) (HPC) 123 % of control | dose: 400.0 mg/kg/injection, schedule: Q04DX002 (ip), vehicle: Klucel (hydroxypropylcellulose) (HPC) 107 % of control

C=CCC(O)C=C (centres undefined)
inactive: dose: 50.0 mg/kg/injection, schedule: Q01DX001 (ip), vehicle: carboxymethylcellulose (CMC) 89 % of control | [2] 92 % of control

CSc1ccc(C(=NO)c2ccc(SC)cc2)cc1
inactive: [3] 95 % of control | dose: 100.0 mg/kg/injection, schedule: Q04DX003 (ip), vehicle: Klucel (hydroxypropylcellulose) (HPC) 101 % of control | [4] 103 % of control | dose: 200.0 mg/kg/injection, schedule: Q04DX003 (ip), vehicle: Klucel (hydroxypropylcellulose) (HPC) 94 % of control | [5] 95 % of control | dose: 400.0 mg/kg/injection, schedule: Q04DX003 (ip), vehicle: Klucel (hydroxypropylcellulose) (HPC) 103 % of control

N/C(=N/N=C/c1ccc(N(CCCl)CCCl)cc1)N[N+](=O)[O-]
inactive: dose: 15.0 mg/kg/injection, schedule: Q01DX Z (ip), vehicle: methylcellulose (MC) 89 % of control | dose: 30.0 mg/kg/injection, schedule: Q01DX Z (ip), vehicle: methylcellulose (MC) 93 % of control | dose: 60.0 mg/kg/injection, schedule: Q01DX Z (ip), vehicle: methylcellulose (MC) 96 % of control | dose: 60.0 mg/kg/injection, schedule: Q01DX Z (oral), vehicle: methylcellulose (MC) 94 % of control | dose: 120.0 mg/kg/injection, schedule: Q01DX Z (ip), vehicle: methylcellulose (MC) 96 % of control | dose: 120.0 mg/kg/injection, schedule: Q01DX Z (oral), vehicle: methylcellulose (MC) 101 % of control | dose: 240.0 mg/kg/injection, schedule: Q01DX Z (ip), vehicle: methylcellulose (MC) 104 % of control | dose: 480.0 mg/kg/injection, schedule: Q01DX Z (ip), vehicle: methylcellulose (MC) 94 % of control

O=[N+]([O-])c1ccc(N2CCOCC2)c2c1no[n+]2[O-]
inactive: dose: 12.5 mg/kg/injection, schedule: Q04DX003 (ip), vehicle: saline with Tween-80 108 % of control | dose: 25.0 mg/kg/injection, schedule: Q04DX003 (ip), vehicle: saline with Tween-80 118 % of control | dose: 50.0 mg/kg/injection, schedule: Q04DX003 (ip), vehicle: saline with Tween-80 116 % of control

CC(C)COC(=O)CCCCC(=O)OCC(C)C
inactive: [6] 113 % of control | [7] 107 % of control | [8] 110 % of control

CC(=O)c1ccc(C(C)(C)C)cc1
inactive: [2] 105 % of control | [9] 100 % of control | [10] 100 % of control

O=C(Nc1ccc(Br)cc1)Nc1ccccc1F
inactive: [3] 98 % of control | [4] 93 % of control | [5] 98 % of control

O=C(O)CCCCCCCCC1CC(F)(F)C(F)(F)S1 (centres undefined)
inactive: [6] 92 % of control | [7] 96 % of control | [8] 92 % of control

CN(C)C(=N)C(=N)N(C)C
inactive: dose: 100.0 mg/kg/injection, schedule: Q01DX009 (ip), vehicle: saline 96 % of control | [11] 98 % of control | dose: 200.0 mg/kg/injection, schedule: Q01DX009 (ip), vehicle: saline 88 % of control | [12] 100 % of control | dose: 400.0 mg/kg/injection, schedule: Q01DX009 (ip), vehicle: saline 94 % of control | [13] 93 % of control

O=S(=O)(F)c1cc(Cl)c(O)c(S(=O)(=O)F)c1
inactive: [3] 101 % of control

O=NN(C(=O)c1ccccc1)C(c1ccccc1)c1ccc(Cl)cc1 (centres undefined)
inactive: dose: 45.0 mg/kg/injection, schedule: Q04DX002 (ip), vehicle: Klucel (hydroxypropylcellulose) (HPC) 91 % of control | dose: 90.0 mg/kg/injection, schedule: Q04DX002 (ip), vehicle: Klucel (hydroxypropylcellulose) (HPC) 91 % of control | dose: 180.0 mg/kg/injection, schedule: Q04DX002 (ip), vehicle: Klucel (hydroxypropylcellulose) (HPC) 97 % of control

OCC(O)C1OC(c2ccccc2)OC1C(O)CO (centres undefined)
inactive: [11] 105 % of control | [12] 92 % of control | [13] 99 % of control

CCCCC(CCCC(=O)O)C(=O)O (centres undefined)
inactive: [2] 93 % of control | [9] 96 % of control | [10] 98 % of control

CC1(C)OCC(N)(CO)CO1
inactive: dose: 100.0 mg/kg/injection, schedule: Q01DX005 (ip), vehicle: water 105 % of control | dose: 100.0 mg/kg/injection, schedule: Q04DX003 (ip), vehicle: water 109 % of control | dose: 200.0 mg/kg/injection, schedule: Q01DX005 (ip), vehicle: water 107 % of control | dose: 200.0 mg/kg/injection, schedule: Q04DX003 (ip), vehicle: water 108 % of control | dose: 400.0 mg/kg/injection, schedule: Q01DX005 (ip), vehicle: water 97 % of control | dose: 400.0 mg/kg/injection, schedule: Q04DX003 (ip), vehicle: water 98 % of control

COC1=C[C@]23CCCN2C[C@H](O)c2cc4c(cc2[C@@H]3[C@@H]1O)OCO4
inactive: dose: 15.0 mg/kg/injection, schedule: Q01DX009 (ip), vehicle: saline 108 % of control | dose: 30.0 mg/kg/injection, schedule: Q01DX009 (ip), vehicle: saline 104 % of control | dose: 60.0 mg/kg/injection, schedule: Q01DX009 (ip), vehicle: saline 100 % of control
